# Results as given in patent publication US20250090626A1, “NEW PEPTIDE AND USES THEREOF” (Neo Cremar Co., Ltd., priority 2021, published 2025).
# Tests used:
# Assay type in all cases: cell-based, mouse
# C2C12 cells [1] = test: C2C12 cell proliferation (MTT method)
# Experimental: C2C12 cells, a mouse myoblast line, were cultured in Dulbecco's Modified Eagle's Medium (DMEM)+10% fetal bovine serum (FBS)+1% penicillin/streptomycin (P/S). To validate the effect of MIF peptide, C2C12 cells (2×10^3 cells/ml) were placed in a 12 well cell culture dish and attached for 24 hours, and MIF peptide (1000 nM) was treated for 1 day to observe cell proliferation by MTT method. The medium was replaced every 2 days, and the cells were cultured at 37° C.
# To validate cell proliferation, the culture medium of the cells was removed, the cells were washed with DMEM, 500 μl of MTT reagent (0.5 mg/ml) dissolved in phosphate buffered saline (PBS) was added to each well, and the cells were left at 37° C. for 1 hour. The reaction solution was removed, and 1000 μl of DMSO was added to each well. Purple formazan crystals were completely dissolved in DMSO, and the absorbance was measured at 540 nm.
# C2C12 cells [2] = test: Myodifferentiation, Giemsa staining, root canal formation and fusion index
# Experimental: When C2C12 cells were 70% grown, media were replaced with myodifferentiation medium added with MSTN protein (1 ng), Ac-MIF1 (1000 nM), and Ac-MIF1 (1000 nM)+MSTN protein (1 ng) from proliferation medium, followed by culture for 3 days.
# When the cells grew more than 70% for differentiation of myoblasts into myocytes, they were cultured for 3 days by replacing with a differentiation medium (DMEM+2% FBS+1% P/S). The medium was replaced once daily, and the cells were cultured at 37° C.
# The cell medium was removed, and the cells were washed with PBS. After washing, a methanol:PBS reagent in a 1:1 volume ratio was treated, followed by fixation for 2 minutes. Additionally, after a methanol:PBS reagent in a 2:1 volume ratio was added, fixation was followed for additional 2 minutes. After 2 minutes, 0.04% Giemsa reagent was added, and then the cells were left for 30 minutes, washed with PBS after 30 minutes, and observed under a microscope, with 3 photographs taken for each cell (300×). In the photographs taken, the number of fused nuclei in the root canal cells was counted, the number of nuclei of total cells was counted, and the number of fused nuclei was divided by the number of nuclei of the total cells to obtain the % value.
# C2C12 cells [3] = test: Scratch experiment, degree of cell recovery; conditions: C2C12, 1000 nM peptide, 1 day in proliferation medium
# Experimental: When the C2C12 cells were 100% grown, cells were scratches on the surface, treated with 1000 nM MIF1 or Ac-MIF1 peptides, and cultured for 1 day, followed by observation for a degree of cell recovery.
# C2C12 cells [4] = test: mRNA expression of myodifferentiation and sarcopenia factors (real-time PCR); conditions: C2C12 myodifferentiation, peptide-treated vs untreated
# Experimental: After adding 1 ml of TRIzol™ reagent, the cells were crushed using a sonicator. After centrifugation of the crushed sample (12,000 rpm, 10 min, 4° C.), the supernatant was transferred to a new tube, added with 200 μl of chloroform, and left at room temperature for 10 minutes. After 10 minutes, centrifugation (12,000 rpm, 10 min, 4° C.) was performed, yielded a transparent supernatant. Next, 500 μl of isopropanol was added, the mixture was left for 10 minutes, and centrifugation was performed to obtain RNA pellets. After washing by adding 70% ethanol (distilled water treated with ethanol+diethylpyrocarbonate (hereinafter referred to as DEPC)) to the RNA pellets, complete removal and drying were followed. The dried transparent RNA was added with DEPC-treated distilled water and then stored at −80° C. Total RNA volume was measured by nanodrop, and the 18s and 28s bands were detected in 1.2% agarose gel. cDNA was synthesized with 2 μg of total RNA, random hexamer primers, and reverse transcriptase (25° C.: 10 min, 37° C.: 120 min, 85° C.: 5 min).
# Real-time PCR (RT-PCR) was performed for detecting gene expression. For observation of real-time gene expression, gene expression was analyzed using the Power SYBR Green PCR Master Mix, which includes fluorescent materials of SYBR green (7500 Real-time PCR system). The PCR primer was designed with Primer 3 software (http://frodo.wi.mit.edu) according to the nucleotide sequence secured from NCBI GenBank. PCR was performed 40 times at 95° C. for 10 minutes, again at 95° C. for 33 seconds, at gene primer temperature (tm) for 33 seconds, and at 72° C. for 33 seconds. Gene expression values were analyzed through the analysis of c(t) values obtained through real-time PCR analysis (fold change 2-^ΔΔCt formula). Setting the gene expression value of the untreated cells to 1, the gene expression value of the treated cells was calculated. In the analysis of gene c(t) values, normalization was conducted with the glyceraldehyde-3-phosphate dehydrogenase (GAPDH).
# C2C12 cells [5] = test: Protein expression of myodifferentiation and sarcopenia factors (Western blot, immunocytochemistry); conditions: C2C12 myodifferentiation, peptide-treated vs untreated
# Experimental: The medium of cultured C2C12 cells was removed and washed once with PBS. The washed cells were treated with 4% formaldehyde (Sigma), fixed for 15 minutes, then washed using PBS, added with 0.2% trypton X-100 (Sigma), and left for 5 minutes. After washing again using PBS, adding 1% normal goat serum, and leaving for 30 minutes, the primary antibody (MYOD, myogenin (MYOG):myosin light chain (MYL2); 1:50) was added to carry out a reaction at 4° C. for 14 hours. The antibodies were removed, washing was performed 3 times with PBS for 10 minutes, and then the cells were left with secondary antibody (Alexa Fluor 488 goat anti-Mouse & rabbit SFX kit t) for 1 hour. After 1 hour, the antibodies were removed, washing was performed with PBS for 10 minutes, the nuclei were stained with 4′,6-diamidino-2-phenylindol (DAPI), and the expression of the proteins was observed using fluorescence microscopy.
# (1) The medium of cultured C2C12 cells was removed, followed by washing with PBS. After adding LIPA buffer and protease inhibitor to the washed cells, the proteins included in the supernatant were collected after centrifugation for 10 minutes at 12000 rpm. 40 μg of the extracted proteins were subjected to electrophoresis in 8 to 10% acrylamide gel and then transferred to a polyvinylidene fluoride (PVDF) membrane (Milipore). These were blocked with 3% skim milk or bovine serum albumin (BSA) at room temperature for 1 hour. Afterwards, primary antibody diluted in 1% skim milk or BSA (Pax7; 1:500, MYOD; 1:500, MYOG; 1:400, MYL2; 1:1000, MYH; 1:500, MSTN; 1:1000, β-actin; 1:1000, MuRF1; 1:400, and Atrogin; 1:1:400) was added and reacted at 4° C. for over 16 hours. After 16 hours, cells were washed three times with TBST (Tris-buffered saline with Tween 20) and reacted with secondary antibody with horseradish peroxidase (HRP) conjugated at room temperature for 1 hour. It was washed three times with TBST and developed after adding Super Signal West Pico Chemiluminescent Substrate.
Substance,"proliferation of cells compared to untreated cells (C2C12 cells [1]; C2C12, MSTN protein in proliferation medium, FIG. 3)","differentiation of cells compared to untreated cells (C2C12 cells [2]; C2C12, MSTN protein in differentiation medium, FIG. 3)","root canal formation compared to untreated cells (C2C12 cells [2]; C2C12, differentiation medium, 3 days)","cell proliferation, increase compared to cells without peptide treatment (C2C12 cells [1]; C2C12, peptide 1000 nM, 1 day, MTT, FIG. 4) [%]","scratch recovery degree, increase compared to untreated cells (C2C12 cells [3]) [%]","fusion index, increase compared to untreated cells (C2C12 cells [2]; C2C12, differentiation medium including peptide, 3 days) [%]",Atrogin1 mRNA expression (C2C12 cells [4]),MSTN mRNA expression (C2C12 cells [4]),MYH mRNA expression (C2C12 cells [4]),MSTN protein expression (C2C12 cells [5]),MYH protein expression (C2C12 cells [5]),MYL2 protein expression (C2C12 cells [5]),MYOD protein expression (C2C12 cells [5]),MYOG protein expression (C2C12 cells [5]),MuRF1 protein expression (C2C12 cells [5])
MSTN protein: myostatin protein that inhibits the proliferation and differentiation of myoblasts [reference compound],reduced,reduced,reduced,–,–,–,–,–,–,–,–,–,–,–,–
VDFEAFWDWG [MIF1],–,–,–,11,22,4,decreased,decreased,increased,increased,increased,increased,increased,increased,decreased
